Assay [1] concerns the target T1, PmSTS_Δ24 (Persicaria minor, UniProt I6XZ73, K266E, form not given).
T1 construct: N-terminal 24 residues removed from the 562-residue protein; N-terminal His6 tag (pET28b), no cleavage told; E. coli BL21 (DE3); PCR primer codes for Met-AGFKPS start; monomer stated for the full-length enzyme
In words: GC-MS product analysis after hexane extraction. In kind it is biochemical. The conditions noted are these: overnight incubation; product beta-sesquiphellandrene.

The target in assay [2] is T2, PmSTS_Δ24 (Persicaria minor, UniProt I6XZ73).
T2 construct: N-terminal 24 residues removed from the 562-residue protein; N-terminal His6 tag (pET28b), no cleavage told; E. coli BL21 (DE3); PCR primer codes for Met-AGFKPS start; monomer stated for the full-length enzyme
T2 sequence (I6XZ73 entry or part of it, stated change not applied): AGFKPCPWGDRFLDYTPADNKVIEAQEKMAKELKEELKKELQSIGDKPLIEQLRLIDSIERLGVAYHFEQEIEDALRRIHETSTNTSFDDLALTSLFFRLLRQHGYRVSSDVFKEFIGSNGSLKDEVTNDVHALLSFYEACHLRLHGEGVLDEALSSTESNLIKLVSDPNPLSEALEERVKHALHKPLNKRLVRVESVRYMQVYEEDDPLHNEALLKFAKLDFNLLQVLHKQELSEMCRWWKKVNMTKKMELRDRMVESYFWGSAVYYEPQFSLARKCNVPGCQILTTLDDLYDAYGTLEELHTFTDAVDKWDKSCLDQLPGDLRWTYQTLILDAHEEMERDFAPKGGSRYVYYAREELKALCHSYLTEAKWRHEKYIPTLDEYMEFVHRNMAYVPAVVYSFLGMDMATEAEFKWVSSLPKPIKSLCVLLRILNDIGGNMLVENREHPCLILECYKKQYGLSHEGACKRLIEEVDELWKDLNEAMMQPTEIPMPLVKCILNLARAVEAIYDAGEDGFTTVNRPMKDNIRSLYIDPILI
In words: malachite green phosphate assay coupled to inorganic diphosphatase. Type of assay: biochemical. Particulars: 20 mM HEPES pH 8.0, 10 mM MgCl2, 30 °C, 0.1 µM enzyme, 2–30 µM FPP; read-out: Km app.

SMILES strings stand for the structures.

T1 sequence (I6XZ73 entry or part of it K266E, form open): as the sequence (I6XZ73 entry or part of it, stated change not applied) above, with K242E counted along it

In the case of `CC(C)=CCC/C(C)=C/CC/C(C)=C/COP(=O)(O)OP(=O)(O)O` [farnesyl diphosphate], the “GC-MS product analysis after hexane extraction” value in assay [1] is reported as “mutant protein K266E produced using an E. coli expression system displayed a product profile”.

On to `CC(C)=CCC/C(C)=C/CC/C(C)=C/CO[P@@](=O)(O)OP(=O)(O)O` (stereo in doubt) [farnesyl diphosphate], for which the Km (commonly the concentration of substrate that gives half-maximal velocity) in assay [2] amounted to 10.2 µM.

These data come from publication PMC5333544, “Purification and biochemical characterization of recombinant Persicaria minor β-sesquiphellandrene synthase” (PeerJ, 2017).
